Test results published in the supplement of paper PMC10331698.
± gives the standard deviation of the averaged measurements.

Assays:
Assay in all cases: level (log10 ratio to DMSO vehicle control); higher = higher biomarker level / cell amount than vehicle control
[1] = compound: FC(F)C(F)(F)COCC1CO1 [((2,2,3,3-Tetrafluoropropoxy)methyl)oxirane]; settings: in DMSO
Procedure: (§1)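 BioMAP Diversity Plus panel of 12 human primary cell co-culture systems (3C, 4H, LPS, SAg, BT, BF4T, BE3C, CASM3C, HDF3CGF, KF3CT, MyoF, Mphg). Compounds were added 1 h before stimulation and left for 24 h (MyoF 48 h; BT 72 h for soluble read-outs or 6 d for IgG). Biomarkers were read by ELISA, cytotoxicity by SRB, PBMC viability and proliferation by Alamar Blue. Each well value was divided by the mean of 8 DMSO control wells on the same plate and log10 transformed; duplicate blinded samples were tested at 4 concentrations.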

[2] = compound: NC(=O)C(F)(F)C(F)(F)F [Pentafluoropropionamide]; settings: in DMSO
Procedure: as §1

[3] = compound: O=C(O)C(F)(F)C(F)(F)C(F)(F)C(F)(F)C(F)(F)C(F)(F)F [Perfluoroheptanoic acid]; settings: in DMSO
Procedure: as §1

[4] = compound: O=C(O)C(F)(F)C(F)(F)C(F)(F)F [Perfluorobutanoic acid]; settings: in DMSO
Procedure: as §1

[5] = compound: O=C(O)C(F)(F)C(F)(F)C(F)(F)OC(F)(C(F)(F)F)C(F)(F)F [Perfluoro-4-isopropoxybutanoic acid]; settings: in DMSO
Procedure: as §1

[6] = compound: O=C(O)C(F)(F)C(F)(F)F [Perfluoropropanoic acid]; settings: in DMSO
Procedure: as §1

[7] = compound: OCCCC(F)(F)C(F)(F)C(F)(F)C(F)(F)C(F)(F)C(F)(F)C(F)(F)F [7:3 Fluorotelomer alcohol]; settings: 6700 nM; in DMSO
Procedure: as §1

Row | Test System | level (log10) ([1]; 6700 nM) | level (log10) ([1]; 20000 nM) | level (log10) ([1]; 60000 nM) | level (log10) ([2]; 6700 nM) | level (log10) ([2]; 20000 nM) | level (log10) ([2]; 60000 nM) | level (log10) ([3]; 6700 nM) | level (log10) ([3]; 20000 nM) | level (log10) ([3]; 60000 nM) | level (log10) ([4]; 6700 nM) | level (log10) ([4]; 20000 nM) | level (log10) ([4]; 60000 nM) | level (log10) ([5]; 6700 nM) | level (log10) ([5]; 20000 nM) | level (log10) ([5]; 60000 nM) | level (log10) ([6]; 6700 nM) | level (log10) ([6]; 20000 nM) | level (log10) ([6]; 60000 nM) | level (log10) [7]
1 | SAg:CD69 | -0.0225 ± 0.0078 | -0.018 ± 0.014 | 0 ± 0.03 | -0.026 ± 0.013 | -0.0385 ± 0.018 | -0.026 ± 0.0071 | -0.006 ± 0.0014 | -0.0145 ± 0.0021 | -0.008 ± 0.017 | -0.01 ± 0.014 | -0.0095 ± 0.03 | 0.018 ± 0.047 | -0.0085 ± 0.00071 | -0.0055 ± 0.005 | -0.016 ± 0.0042 | -0.0175 ± 0.005 | -0.019 ± 0.0042 | -0.008 ± 0.023 | -0.026 ± 0.018
2 | SAg:CXCL8/IL-8 | -0.004 ± 0.011 | -0.0335 ± 0.011 | 0.02 ± 0.018 | -0.0245 ± 0.025 | -0.0255 ± 0.036 | 0.0075 ± 0.04 | 0.008 ± 0.011 | 0.0115 ± 0.0078 | 0.0715 ± 0.043 | -0.0025 ± 0.0092 | -0.005 ± 0.0085 | 0.0335 ± 0.028 | 0.009 ± 0.037 | 0.02 ± 0.02 | 0.071 ± 0.023 | -0.022 ± 0.0057 | 0.0065 ± 0.019 | 0.0415 ± 0.0078 | -0.0085 ± 0.025
3 | SAg:CXCL9/MIG | -0.002 ± 0.011 | -0.006 ± 0.014 | 0.0065 ± 0.0092 | -0.0145 ± 0.0021 | -0.017 ± 0.0014 | 0.009 ± 0.014 | -0.0125 ± 0.0078 | 0.0015 ± 0.0064 | 0.0105 ± 0.011 | -0.0045 ± 0.005 | -0.003 ± 0.016 | -0.0065 ± 0.005 | -0.007 ± 0.0099 | 0.002 ± 0.0042 | 0.002 ± 0.0071 | -0.0015 ± 0.0078 | 0.012 ± 0.0057 | 0.0025 ± 0.022 | -0.0145 ± 0.005
4 | SAg:PBMC Cytotoxicity | 0.031 ± 0.021 | -0.006 | 0.0205 ± 0.023 | 0.0005 ± 0.052 | 0.026 ± 0.0042 | 0.0245 ± 0.012 | 0.0255 ± 0.0021 | 0.0095 ± 0.019 | 0.0195 ± 0.026 | -0.0155 ± 0.00071 | -0.013 ± 0.037 | -0.009 ± 0.057 | 0.0225 ± 0.026 | 0.0245 ± 0.028 | 0.0425 ± 0.022 | -0.001 ± 0.013 | -0.0055 ± 0.0092 | 0.009 ± 0.044 | -0.0315 ± 0.018
5 | SAg:Proliferation | -0.0075 ± 0.019 | -0.02 ± 0.03 | -0.0095 ± 0.0092 | 0.0045 ± 0.016 | 0.0135 ± 0.022 | 0.045 ± 0.0028 | 0.0045 ± 0.032 | 0.0275 ± 0.035 | 0.028 ± 0.034 | -0.04 ± 0.0099 | 0.0325 ± 0.029 | -0.0065 ± 0.039 | -0.018 ± 0.0042 | -0.007 ± 0.0028 | 0.0175 ± 0.04 | -0.0205 ± 0.043 | -0.0085 ± 0.019 | -0.0025 ± 0.07 | -0.0205 ± 0.052
6 | SAg:SRB | -0.007 ± 0.0057 | -0.0075 ± 0.0064 | -0.005 ± 0.014 | -0.0005 ± 0.016 | -0.0055 ± 0.0092 | -0.01 ± 0.014 | -0.0155 ± 0.013 | 0.001 ± 0.011 | -0.0385 ± 0.016 | -0.013 ± 0.03 | -0.005 ± 0.02 | -0.0075 ± 0.011 | -0.001 ± 0.018 | -0.0085 ± 0.016 | -0.018 ± 0.0085 | -0.01 ± 0.0028 | -0.014 ± 0.0042 | -0.0035 ± 0.00071 | 0.0045 ± 0.013
